Entries after “also recorded” stand apart in the source; their conditions may differ.
Tests used:
[1] = system: p42/p44 MAPK; experiment: p42/p44 MAPK Thr202/Tyr204 phosphorylation in HMVE cells, Western blot; type: cell-based, human; conditions: minimum growth factor concentrations giving maximal activation
Method: (§1) Western blot analysis. Endothelial cells were cultured on 35 mm dishes to near confluence, starved for 24 h in serum free medium and stimulated as indicated. Wortmannin ([…]), LY294002 ([…]), PD98059 (10-25 μM) or GF109203X (2.5-5 μM) were added 1-3 h before stimulation, where indicated. DMSO, into which the inhibitors were dissolved, was used as a control. After the stimulation, the cells were lysed in lysis buffer (50 mM HEPES, pH 7.5, 150 mM NaCl, 10 mM EDTA, 100 mM NaF, 1% TritonX-100 supplemented with 2 mM Na3VO4, 0.5 mM PMSF, 100 U/ml approtinin and 10 μg/ml leupeptin). Clarified lysates were separated by SDS-PAGE, transferred to nitrocellulose and immunoblotted using the phosphospecific antibodies for Akt-Ser473, Akt-Thr308, p42/44 MAPK-Thr202/Tyr204 or CREB-Ser133. The bound antibodies were detected using horseradish peroxidase conjugated secondary antibodies and enhanced chemiluminescence detection system. The blots were stripped and reprobed with antibodies against Akt, MAPK or CREB for quantification by reading the optical densities of the signals with Multi-Analyst 2.0.1 program (Bio-Rad).
(§2) The p42/p44 MAPK activation was detected by Western blotting using phospho-Thr202/Tyr204-MAPK specific antibodies and CREB phosphorylation using phospho-Ser133 specific antibodies. The growth factor concentrations used were: VEGF 10 ng/ml, VEGF-C 100 ng/ml and VEGF-C156S 500 ng/ml. […] Effects of inhibition of protein kinase C by GF109203X, MEK1 by PD98059 and PI-3 kinase by LY294002 on p42/p44 MAPK Thr202/Tyr204 phosphorylation, CREB Ser133 phosphorylation and Akt Ser473 phosphorylation in HMVE cells. The growth factor concentrations used were: VEGF 1 ng/ml, VEGF-C 10 ng/ml and VEGF-C156S 500 ng/ml

[2] = system: CREB; experiment: CREB Ser133 phosphorylation in HMVE cells, Western blot; type: cell-based, human; conditions: HMVE cells
Method: as §1, §2

[3] = biological target: mVEGFR-2 (Mus musculus, UniProt P35918); conditions: mVEGFR-2, monovalent; reference: Baldwin et al. 2001; cited from earlier work
Chain of mVEGFR-2 (P35918 20-1345): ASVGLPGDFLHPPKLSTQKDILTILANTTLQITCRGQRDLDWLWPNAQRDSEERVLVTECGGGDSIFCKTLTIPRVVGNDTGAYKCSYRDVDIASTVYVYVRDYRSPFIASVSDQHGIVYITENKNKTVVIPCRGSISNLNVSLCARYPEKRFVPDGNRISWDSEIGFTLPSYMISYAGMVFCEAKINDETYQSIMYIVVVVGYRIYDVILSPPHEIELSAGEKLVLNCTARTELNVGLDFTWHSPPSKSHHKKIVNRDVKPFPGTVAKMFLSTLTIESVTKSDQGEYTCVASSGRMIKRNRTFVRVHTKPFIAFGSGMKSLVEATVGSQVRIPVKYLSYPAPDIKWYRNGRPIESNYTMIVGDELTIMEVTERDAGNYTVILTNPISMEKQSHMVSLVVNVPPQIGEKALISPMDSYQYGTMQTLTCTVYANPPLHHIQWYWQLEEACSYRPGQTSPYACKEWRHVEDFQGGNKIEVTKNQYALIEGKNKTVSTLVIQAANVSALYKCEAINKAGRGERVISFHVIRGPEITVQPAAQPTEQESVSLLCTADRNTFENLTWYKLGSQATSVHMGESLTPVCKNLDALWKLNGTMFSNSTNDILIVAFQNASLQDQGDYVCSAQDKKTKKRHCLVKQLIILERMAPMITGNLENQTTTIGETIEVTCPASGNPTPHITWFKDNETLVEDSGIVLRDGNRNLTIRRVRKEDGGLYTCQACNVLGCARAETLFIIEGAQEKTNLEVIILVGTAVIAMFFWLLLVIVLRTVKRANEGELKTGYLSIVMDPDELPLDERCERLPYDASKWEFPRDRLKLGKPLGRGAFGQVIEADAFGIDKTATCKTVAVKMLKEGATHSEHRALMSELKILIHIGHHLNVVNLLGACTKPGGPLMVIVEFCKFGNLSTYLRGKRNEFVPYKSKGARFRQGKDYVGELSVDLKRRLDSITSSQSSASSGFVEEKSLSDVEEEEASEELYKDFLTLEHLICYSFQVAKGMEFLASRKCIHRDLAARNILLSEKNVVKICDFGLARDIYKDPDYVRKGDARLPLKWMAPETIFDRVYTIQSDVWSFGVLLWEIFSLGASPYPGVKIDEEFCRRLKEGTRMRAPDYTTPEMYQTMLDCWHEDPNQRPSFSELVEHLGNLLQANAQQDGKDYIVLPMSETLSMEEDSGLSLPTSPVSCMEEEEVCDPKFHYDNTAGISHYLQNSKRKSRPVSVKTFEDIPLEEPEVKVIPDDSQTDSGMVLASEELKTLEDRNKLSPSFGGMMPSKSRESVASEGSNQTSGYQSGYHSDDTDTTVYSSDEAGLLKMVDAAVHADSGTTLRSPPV

[4] = biological target: mVEGFR-3 (Mus musculus, UniProt P35917); conditions: reference: Baldwin et al. 2001; cited from earlier work
Chain of mVEGFR-3 (P35917 25-1363): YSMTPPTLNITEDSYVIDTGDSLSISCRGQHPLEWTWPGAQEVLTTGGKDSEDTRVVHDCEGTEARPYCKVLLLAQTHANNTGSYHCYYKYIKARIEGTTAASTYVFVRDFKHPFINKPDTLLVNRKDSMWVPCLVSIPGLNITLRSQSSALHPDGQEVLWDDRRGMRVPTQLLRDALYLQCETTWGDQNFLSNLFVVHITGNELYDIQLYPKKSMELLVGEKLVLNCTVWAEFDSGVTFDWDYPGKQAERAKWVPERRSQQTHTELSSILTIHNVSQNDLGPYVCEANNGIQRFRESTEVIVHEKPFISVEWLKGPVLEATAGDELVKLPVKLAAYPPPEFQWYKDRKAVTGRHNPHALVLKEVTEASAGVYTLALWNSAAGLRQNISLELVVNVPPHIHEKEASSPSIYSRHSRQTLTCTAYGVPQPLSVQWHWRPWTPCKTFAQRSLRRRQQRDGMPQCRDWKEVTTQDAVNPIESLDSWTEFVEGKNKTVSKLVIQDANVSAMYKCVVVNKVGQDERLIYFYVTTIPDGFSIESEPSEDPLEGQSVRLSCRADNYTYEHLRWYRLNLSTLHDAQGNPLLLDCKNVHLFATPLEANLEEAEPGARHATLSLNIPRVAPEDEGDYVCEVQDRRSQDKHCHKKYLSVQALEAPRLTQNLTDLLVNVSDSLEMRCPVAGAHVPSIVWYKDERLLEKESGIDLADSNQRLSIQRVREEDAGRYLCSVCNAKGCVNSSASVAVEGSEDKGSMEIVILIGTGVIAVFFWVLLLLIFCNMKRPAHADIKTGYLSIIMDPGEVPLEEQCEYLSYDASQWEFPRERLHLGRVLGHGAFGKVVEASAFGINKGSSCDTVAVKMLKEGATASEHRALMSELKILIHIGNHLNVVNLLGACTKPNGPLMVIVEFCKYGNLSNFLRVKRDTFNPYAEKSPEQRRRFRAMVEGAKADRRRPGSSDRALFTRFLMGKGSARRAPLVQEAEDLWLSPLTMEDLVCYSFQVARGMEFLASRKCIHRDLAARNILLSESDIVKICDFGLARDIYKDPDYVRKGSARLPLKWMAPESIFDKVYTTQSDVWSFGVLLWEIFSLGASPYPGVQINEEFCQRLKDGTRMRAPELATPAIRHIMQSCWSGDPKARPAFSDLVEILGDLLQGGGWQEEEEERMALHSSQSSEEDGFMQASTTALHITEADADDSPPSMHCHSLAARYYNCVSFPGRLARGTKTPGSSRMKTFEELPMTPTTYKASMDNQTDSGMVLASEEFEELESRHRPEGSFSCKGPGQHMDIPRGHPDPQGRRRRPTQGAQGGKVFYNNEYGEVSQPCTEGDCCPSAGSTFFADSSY

## CN(C)CCCn1cc(C2=C(c3c[nH]c4ccccc34)C(=O)NC2=O)c2ccccc21 [GF109203X, Bisindolylmaleimide I]
[1]
  effect on p42/44 MAPK phosphorylation induced by VEGF, VEGF-C or VEGF-C156S: completely blocked
[2]
  effect of inhibitor on VEGF induced CREB phosphorylation: completely blocked
  effect of inhibitor on VEGF-C induced CREB phosphorylation: completely blocked

## COc1cccc(-c2cc(=O)c3ccccc3o2)c1N [PD98059]
[2]
  effect of inhibitor on VEGF induced CREB phosphorylation: but not VEGF induced CREB phosphorylation; also recorded: did not inhibit VEGF induced CREB phosphorylation
  effect of inhibitor on VEGF-C induced CREB phosphorylation: inhibited VEGFC; also recorded: decreased phosphorylation of CREB upon VEGFC stimulation

## N#CC(=C(/N)Sc1ccccc1N)/C(C#N)=C(\N)Sc1ccccc1N [U0126]
[2]
  effect of inhibitor on VEGF induced CREB phosphorylation: but not VEGF induced CREB phosphorylation
  effect of inhibitor on VEGF-C induced CREB phosphorylation: inhibited VEGFC

B1: mVEGF-D: mature form of mouse VEGF-D, data from Baldwin et al. 2001 (protein, UniProt P97946 94-210, looked up)
Vascular endothelial growth …: FAATFYDTETLKVIDEEWQRTQCSPRETCVEVASELGKTTNTFFKPPCVNVFRCGGCCNEEGVMCMNTSTSYISKQLFEISVPLTSVPELVPVKIANHTGCKCLPTGPRHPYSIIRR
[3]
  KD: no binding
  Ka: no binding
  Kd: no binding
[4]
  Ka: 8000 M⁻¹ s⁻¹
